Counter-ions that a name gives are not always drawn. Like-named read-outs stand apart in the source and are kept apart here.
What was measured:
Assay type in all cases: physicochemical
[1] = critical water activity for hydrate formation (PXRD of solids from methanol/water suspensions); conditions: ambient temperature
Source text: The critical water activity of the monohydrate salt can be determined by mixing different ratios of organic solvents and water. The analysis of the water activity for these solvent mixtures are temperature dependent. Determination of the critical water activity typically comprises the following steps: (1) preparation of solvent mixtures with a range of water activities; (2) saturation of the organic solvent/water mixtures with the monohydrate salt; (3) the optional filtration of the saturated solution; (4) addition of a 1:1 solid mixture (e.g., 25 mg/phase) of the anhydrous and hydrated phases to the saturated organic solvent/water mixtures; (5) equilibration at the temperature of interest (3-5 days); and (6) analysis of the residual solids by the appropriate technique, as understood by one skilled in the art (e.g., PXRD) to determine the identity of the stable phases.
The inventors determined the critical water activity for (4s)-4-(5-phenyl-1,3,4-thiadiazol-2-yloxy)-1-azatricyclo[3.3.1.1^3,7]decane dihydrogen citrate monohydrate at ambient temperature. Specifically, the inventors developed suspensions of the crystalline product in mixtures of methanol and water, with water activities of 0.20, 0.15, 0.10, and 0.05, performing powder X-ray diffraction patterns for each suspension, respectively. […]

solubility in water = test: solubility in water
[2] = hygroscopicity by dynamic moisture sorption balance
Method: Dynamic moisture sorption balance (DMSB) was used to evaluate the hygroscopicity of the crystalline monohydrate compound. The hygroscopicity was evaluated using a dynamic moisture sorption balance (IGAsorp, Hiden Isochema) equipped with a data analyzer. The balance was calibrated using standardized weights of 20, 50, and 100 mg. The RH probe was calibrated using standardized salt solutions of lithium chloride, potassium carbonate, and sodium chloride. During the experiment, the flow rate of nitrogen gas at different relative humidity was 250 mL/min. For anhydrous materials, the sample was first dried with dry nitrogen at 50° C. for two hours. The temperature was then set to 25° C. and the relative humidity was changed from 0% to 90% and back to 0% at 10% intervals. For hydrated samples the temperature was set to 25° C. and the relative humidity was changed at 10% intervals from 30% to 90%, back to 10%, and then to 90%. For each step described herein, a one hour equilibration time period was used.

c1ccc(-c2nnc(O[C@@H]3C4CC5C[C@H]3C[N@](C5)C4)s2)cc1 [(4s)-4-(5-phenyl-1,3,4-thiadiazol-2-yloxy)-1-azatricyclo[3.3.1.1^3,7]decane dihydrogen citrate]
water activity of solvent at which the salt exists as the anhydrate [1]: ≤ 0.10 | water activity of solvent at which the salt exists as the monohydrate [1]: ≥ 0.15

c1ccc(-c2nnc(O[C@@H]3C4CC5C[C@H]3C[N@](C5)C4)s2)cc1 [dihydrogen citrate anhydrate, (4s)-4-(5-phenyl-1,3,4-thiadiazol-2-yloxy)-1-azatricyclo[3.3.1.1^3,7]decane dihydrogen citrate]
solubility (solubility in water): 28 mg/mL | hygroscopicity (in words) [2]: non-hygroscopicity

c1ccc(-c2nnc(O[C@@H]3C4CC5C[C@H]3C[N@](C5)C4)s2)cc1 [dihydrogen citrate monohydrate, (4s)-4-(5-phenyl-1,3,4-thiadiazol-2-yloxy)-1-azatricyclo[3.3.1.1^3,7]decane dihydrogen citrate monohydrate]
hygroscopicity (in words) ([2]; citrate monohydrate): non-hygroscopic | hygroscopicity (in words) ([2]; listed as crystalline monohydrate of (4s)-4-(5-phenyl-1,3,4-thiadiazol-2-yloxy)-1-azatricy, citrate monohydrate): non-hygroscopic | weight change by dynamic moisture sorption ([2]; relative humidities from 0% to 90%, listed as crystalline monohydrate of (4s)-4-(5-phenyl-1,3,4-thiadiazol-2-yloxy)-1-azatricy, citrate monohydrate): < 0.2%
